Data set [1] deals with Salmonella typhimurium TA98 and TA100. Put plainly: Reverse mutation test (Ames test), pre-incubation method. The data set is classed as cell-based. The note with it: strains TA98 and TA100; for Ames test S9 (−): absence of metabolic activation system (S9mix (−)); for Ames test S9 (+): presence of metabolic activation system (rat liver S9mix (+)). How it is done: The presence or absence of genotoxicity in the compounds of the present invention was evaluated by a reverse mutation test (Ames test) using bacteria. The test was performed by a pre-incubation method using two bacterial strains of Salmonella typhimurium TA98 and TA100, in the absence of a metabolic activation system (S9mix (−)) and in the presence of a metabolic activation system (S9mix (+)). The compounds were dissolved in dimethyl sulfoxide (DMSO), and thus test liquids were prepared. Regarding the negative control, the solvent DMSO was used. Regarding the positive control, 2-(2-furyl)-3-(5-nitro-2-furyl)acrylamide (AF-2) was used for S9mix (−), and 2-aminoanthracene (2-AA) was used for S9mix (+).
0.1 mL of a test liquid was introduced into a sterilized test tube, and then 0.5 mL of a 0.1 mol/L sodium phosphate buffer solution (pH 7.4) was added to the test tube in the case of S9mix (−), or 0.5 mL of rat liver S9mix was added to the test tube in the case of S9mix (+). Furthermore, 0.1 mL of a precultured test strain suspension was added to the test tube, and then the test strain was subjected to shaking culture for 20 minutes at 37° C. (preincubation). […] Subsequently, the content of the test tube was superposed on a minimum glucose agar medium plate and was spread evenly. The plate was cultured for 48 hours at 37° C. in a thermostat. After completion of culture, the number of reverse mutation colonies grown on the plate was measured using a colony counter. Regarding the determination, a case in which the number of reverse mutation colonies increased to twice or more of the number of colonies of the negative control, and concentration-dependency was recognized, was regarded as positive. […]

For data set [2], the target named is human T-type calcium channels (human Cav3.2) (Homo sapiens (Human), UniProt O95180). Briefly: Antagonistic activity against T-type calcium channels (Cav3.2), Fura2 intracellular calcium assay in HEK293 cells. The data set is classed as cell-based. The protocol: For representative compounds of the present invention, the antagonistic activity against T-type calcium channels (Cav3.2) was examined by the Test Examples described below. For the respective tests, human embryo kidney cells (HEK293 cells) in which human T-type calcium channels (human Cav3.2) were stably expressed were used.
The HEK293 cells having human Cav3.2 stably expressed therein were cultured at 37° C. in Alpha-MEM, to which 10% (v/v) fetal bovine serum (FBS), penicillin (100 U/mL), streptomycin (100 μg/mL), and G418 ([…]) had been added. The cells were suspended in the culture liquid and were inoculated onto a 96-well plate. Subsequently, the cells were cultured for 48 hours. The culture liquid was removed, and the liquid was changed to S-MEM, to which 5% (v/v) FBS, calcium chloride (0.5 mmol/L), L-glutamine (2 mmol/L), L-alanine (8.9 ng/mL), L-asparagine (13.2 ng/mL), L-aspartic acid (1.33 ng/mL), L-glutamic acid (14.7 ng/mL), glycine (7.5 ng/mL), L-proline (11.5 ng/mL, L-serine (10.5 ng/mL), penicillin (100 U/mL), and streptomycin (100 μg/mL) had been added. The cells were cultured for another 24 hours. The culture liquid was removed again, and the cells were washed with an assay buffer (140 mmol/L sodium chloride, 5 mmol/L potassium chloride, 0.5 mmol/L magnesium chloride, 0.5 mmol/L calcium chloride, 10 mmol/L glucose, 0.4 mmol/L magnesium sulfate, 10 mmol/L HEPES, and […] sulfinpyrazone, pH 7.4) that had been kept warm at 37° C. Subsequently, an assay buffer prepared by dissolving Fura2-AM, which is a fluorescent Ca^2+ indicator, to a concentration of 5 μM, was added to the cells, and the system was incubated for 30 minutes at 37° C. The assay buffer having Fura2 dissolved therein was removed, and the cells were washed with the assay buffer. Subsequently, an assay buffer prepared by adding a test compound was added to the cells, and the system was incubated for 15 minutes. The plate was mounted on a fluorescence analyzer (FLEX STATION II, Molecular Devices, LLC), and the baseline was measured for 20 seconds. Subsequently, any change in the intracellular calcium concentration that was induced when an assay buffer prepared by adding 100 mmol/L calcium chloride was added to the cells, was measured (excited at 340 nm or 380 nm, and detected at 510 nm). The fluorescence intensity ratios obtainable at the respective wavelengths were calculated.
Meanwhile, the test compound solution was prepared by dissolving each test compound in DMSO to a concentration of 10 mmol/L, and then adjusting the concentration with the assay buffer so as to obtain the set concentration. For the control solution, DMSO was used instead of a test compound.
The inhibitory activity level (%) of a test compound was calculated by subtracting the average value of the fluorescence intensity ratio for a period of 0 to 20 seconds after initiation of measurement, from the average value of the fluorescence intensity ratio for a period of 45 to 50 seconds after initiation of measurement, taking the value obtained using the control solution as the maximum activity of Cav3.2, and comparing this value with the activity in the presence of the test compound.
Calculation of IC50 Value:
The inhibitory activity of each test compound was measured at concentrations of […], and the IC50 value was calculated using the curve fitting formula (Model 08: sigmoidal inhibition curve) of ASSAY EXPLORER (Symyx Technologies, Inc.).
Average of RFU value obtained for 25 to 30 seconds after the addition of a […] assay buffer after treatment with the control solution (for 45 to 50 seconds after the initiation of measurement). The RFU in the formula represents the Relative Fluorescence Unit.

[3] abbreviates: HEK293 cells stably expressing human Cav3.2, Fura2 fluorescence ratio after calcium chloride addition, read-out: IC50.

Read-outs that look alike come from different tables or passages of the source.

human T-type calcium channels (human Cav3.2), sequence (O95180 whole entry): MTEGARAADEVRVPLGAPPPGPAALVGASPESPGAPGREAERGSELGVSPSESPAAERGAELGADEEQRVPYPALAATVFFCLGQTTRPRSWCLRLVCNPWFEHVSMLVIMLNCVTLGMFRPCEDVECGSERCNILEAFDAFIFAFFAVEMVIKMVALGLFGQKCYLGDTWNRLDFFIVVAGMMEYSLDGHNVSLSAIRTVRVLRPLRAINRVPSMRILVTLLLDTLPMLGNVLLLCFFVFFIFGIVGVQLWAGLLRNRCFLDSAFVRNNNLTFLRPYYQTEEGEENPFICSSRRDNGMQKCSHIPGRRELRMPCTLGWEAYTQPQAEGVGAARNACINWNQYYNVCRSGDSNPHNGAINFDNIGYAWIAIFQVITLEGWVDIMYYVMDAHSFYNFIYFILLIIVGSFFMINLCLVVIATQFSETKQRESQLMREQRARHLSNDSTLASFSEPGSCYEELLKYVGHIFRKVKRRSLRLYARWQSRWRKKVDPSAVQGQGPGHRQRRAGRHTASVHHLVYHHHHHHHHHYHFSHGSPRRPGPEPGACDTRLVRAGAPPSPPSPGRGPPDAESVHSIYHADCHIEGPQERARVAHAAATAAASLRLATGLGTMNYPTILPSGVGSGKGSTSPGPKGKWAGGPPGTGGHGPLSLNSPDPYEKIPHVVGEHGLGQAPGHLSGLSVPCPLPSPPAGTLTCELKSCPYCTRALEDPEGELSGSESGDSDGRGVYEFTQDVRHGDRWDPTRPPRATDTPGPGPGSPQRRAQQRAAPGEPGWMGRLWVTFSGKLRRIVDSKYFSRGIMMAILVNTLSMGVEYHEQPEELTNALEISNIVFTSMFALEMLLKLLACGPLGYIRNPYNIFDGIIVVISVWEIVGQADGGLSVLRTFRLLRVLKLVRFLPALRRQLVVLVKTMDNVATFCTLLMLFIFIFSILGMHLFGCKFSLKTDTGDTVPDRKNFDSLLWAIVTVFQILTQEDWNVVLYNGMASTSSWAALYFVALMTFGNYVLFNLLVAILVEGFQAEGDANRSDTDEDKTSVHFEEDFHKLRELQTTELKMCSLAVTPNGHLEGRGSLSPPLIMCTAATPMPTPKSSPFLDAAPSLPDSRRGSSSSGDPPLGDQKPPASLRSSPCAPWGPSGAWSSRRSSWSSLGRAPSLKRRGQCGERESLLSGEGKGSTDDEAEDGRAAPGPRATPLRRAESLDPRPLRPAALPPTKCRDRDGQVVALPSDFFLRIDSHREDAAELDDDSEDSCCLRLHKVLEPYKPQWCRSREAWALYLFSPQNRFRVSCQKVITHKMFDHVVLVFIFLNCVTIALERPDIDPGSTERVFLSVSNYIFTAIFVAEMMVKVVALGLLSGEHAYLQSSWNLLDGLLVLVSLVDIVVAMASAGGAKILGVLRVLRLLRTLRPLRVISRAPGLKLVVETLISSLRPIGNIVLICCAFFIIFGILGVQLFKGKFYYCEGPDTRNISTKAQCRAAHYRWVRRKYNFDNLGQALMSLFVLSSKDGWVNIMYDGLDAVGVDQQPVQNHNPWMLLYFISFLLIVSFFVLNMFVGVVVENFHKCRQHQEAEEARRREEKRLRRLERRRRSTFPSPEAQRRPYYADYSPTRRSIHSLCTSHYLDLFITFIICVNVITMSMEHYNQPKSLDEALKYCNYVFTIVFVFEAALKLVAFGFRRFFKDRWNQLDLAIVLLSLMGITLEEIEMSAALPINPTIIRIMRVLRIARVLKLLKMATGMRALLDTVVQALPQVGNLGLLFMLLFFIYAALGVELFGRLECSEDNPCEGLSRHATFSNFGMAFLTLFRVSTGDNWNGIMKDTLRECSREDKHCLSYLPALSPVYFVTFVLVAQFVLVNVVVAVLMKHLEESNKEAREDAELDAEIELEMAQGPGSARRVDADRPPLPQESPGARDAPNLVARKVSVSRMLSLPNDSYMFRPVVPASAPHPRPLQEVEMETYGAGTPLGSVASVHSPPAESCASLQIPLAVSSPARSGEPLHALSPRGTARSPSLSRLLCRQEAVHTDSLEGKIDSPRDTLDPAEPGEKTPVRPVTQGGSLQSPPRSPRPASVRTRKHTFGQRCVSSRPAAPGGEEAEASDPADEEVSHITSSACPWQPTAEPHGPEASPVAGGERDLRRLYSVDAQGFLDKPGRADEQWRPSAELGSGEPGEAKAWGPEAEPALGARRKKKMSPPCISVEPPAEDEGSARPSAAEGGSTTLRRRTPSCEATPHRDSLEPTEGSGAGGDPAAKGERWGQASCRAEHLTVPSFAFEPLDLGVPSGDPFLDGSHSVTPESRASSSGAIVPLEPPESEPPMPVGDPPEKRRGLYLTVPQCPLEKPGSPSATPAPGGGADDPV

Turning to `Cc1cccc2[nH]c(CC3CCN(CC(=O)NC(C)(C)C)CC3)nc12` [Control Compound 1, N-tert-Butyl-2-[4-(4-methyl-1H-benzimidazol-2-yl)methylpiperidin-1-yl]acetamide, reference compound], in data set [1], the “Ames test S9 (−)” value was “Negative” and the “Ames test S9 (+)” value is “Positive”. In the same order, the values of `COc1cccc2[nH]c(CC3CCN(CC(=O)NC(C)(C)C)CC3)nc12` [Control Compound 2, N-tert-Butyl-2-[4-(4-methoxy-1H-benzimidazol-2-yl)methylpiperidin-1-yl]acetamide, reference compound] are “Negative” and “Positive”. `CC(C)(C)NC(=O)CN1CCC(Cc2nc3ccc4c(c3[nH]2)OCCO4)CC1.Cl.Cl` [Control Compound 3, N-tert-Butyl-2-[4-(5,6-dihydro-1H-[1,4]dioxino[2,3-e]benzimidazol-2-yl)methylpiperidin-1-yl]acetamide dihydrochloride, reference compound]: in data set [1], the “Ames test S9 (−)” value was “Negative” and the “Ames test S9 (+)” value was “Positive”.

Usually IC50 stands for the midpoint of a concentration-inhibition curve. With `CC(C)(C)NC(=O)CN1[C@@H]2CC[C@H]1C[C@H](CNC(=O)c1cc(F)cc(Cl)c1)C2` [Example 54], the IC50 in data set [2] came out at 20 nM. Besides, in data set [1], the “Ames test S9 (−)” value is recorded as “Negative” and the “Ames test S9 (+)” value is reported as “Negative”. `CC1(NC(=O)CN2[C@@H]3CC[C@H]2C[C@H](CNC(=O)c2cc(F)cc(Cl)c2)C3)CC1` [Example 115]: the half-inhibitory concentration (IC50) in data set [2] (setting [3]) was 63 nM.

As for `CN(C(=O)CN1[C@@H]2CC[C@H]1C[C@H](CNC(=O)c1cc(F)cc(Cl)c1)C2)C(C)(C)C` [Example 118], the IC50 in data set [2] (setting [3]) was 78 nM. On the same count and under the same terms, under `Cc1cccc2[nH]c(C[C@@H]3C[C@H]4CC[C@@H](C3)N4CC(=O)NC(C)(C)C)nc12` [Example 120, N-tert-Butyl-2-[(exo)-3-(4-methyl-1H-benzimidazol-2-yl)methyl-8-azabicyclo[3.2.1]octan-8-yl]acetamide] stands 59 nM; under `COc1ccc2[nH]c(C[C@@H]3C[C@H]4CC[C@@H](C3)N4CC(=O)NC(C)(C)C)nc2c1OC` [Example 122], 138 nM. As to `CC(C)(C)NC(=O)CN1[C@@H]2CC[C@H]1C[C@H](Cc1nc3c4c(ccc3[nH]1)OCCO4)C2` [Example 123, N-tert-Butyl-2-[(exo)-3-(5,6-dihydro-1H-[1,4]dioxino[2,3-e]benzimidazol-2-yl)methyl-8-azabicyclo[3.2.1]octan-8-yl]acetamide], in data set [1], the “Ames test S9 (−)” value is on record as “Negative” and the “Ames test S9 (+)” value is reported as “Negative”. `COc1cccc2[nH]c(C[C@@H]3C[C@H]4CC[C@@H](C3)N4CC(=O)NC(C)(C)C)nc12` [Example 124]: the 50% inhibitory concentration (IC50) in data set [2] (setting [3]) is 96 nM. Still for that read-out and setting: under `CC(C)(C)CNC(=O)C[C@H]1C[C@H]2CC[C@@H](C1)N2CC(=O)NC(C)(C)C` [Example 127, 2-[(endo)-8-(tert-Butylcarbamoyl)methyl-8-azabicyclo[3.2.1]octan-3-yl]-N-(2,2-dimethylpropyl) acetamide] stands 73 nM. On to `CC(C)(C)NC(=O)CN1[C@@H]2CC[C@H]1C[C@@H](CC(=O)NC13CC4CC(CC(C4)C1)C3)C2` [Example 129, N-(Adamantan-1-yl)-2-[(endo)-8-(tert-butylcarbamoyl)methyl-8-azabicyclo[3.2.1]octan-3-yl]acetamide], for which the concentration for half-maximal inhibition (IC50) in data set [2] (setting [3]) was 66 nM. Still for that read-out and setting: under `CC(C)(C)NC(=O)CN1[C@@H]2CC[C@H]1C[C@@H](CC(=O)NC13CC4CC(CC1C4)C3)C2` [Example 131] stands 49 nM; under `CC(C)(C)NC(=O)CN1[C@@H]2CC[C@H]1C[C@@H](CNC(=O)C13CC4CC(CC(C4)C1)C3)C2` [Example 144, N-[(endo)-8-(tert-Butylcarbamoyl)methyl-8-azabicyclo[3.2.1]octan-3-yl]methyladamantane-1-carboxamide], 44 nM. In the case of `COc1cccc2[nH]c(C[C@H]3C[C@H]4CC[C@@H](C3)N4CC(=O)NC(C)(C)C)nc12` [Example 145, N-tert-Butyl-2-[(endo)-3-(4-methoxy-1H-benzimidazol-2-yl)methyl-8-azabicyclo[3.2.1]octan-8-yl]acetamide], in data set [2] (setting [3]), the concentration for half-maximal inhibition (IC50) worked out at 98 nM. Moreover, in data set [1], the “Ames test S9 (−)” value was “Negative” and the “Ames test S9 (+)” value is on record as “Negative”.

For `Cc1cccc2[nH]c(C[C@H]3C[C@H]4CC[C@@H](C3)N4CC(=O)NC(C)(C)C)nc12` [Example 147], the IC50 in data set [2] (setting [3]) came to 83 nM. Take `CC(C)(C)NC(=O)CN1[C@@H]2CC[C@H]1C[C@@H](CC(=O)NC13CC4CC(CC(C4)O1)C3)C2.Cl` [Example 152, 2-[(endo)-8-(tert-Butylcarbamoyl)methyl-8-azabicyclo[3.2.1]octan-3-yl]-N-(2-oxaadamantan-1-yl)acetamide hydrochloride]: in data set [1], the “Ames test S9 (−)” value is “Negative” and the “Ames test S9 (+)” value is “Negative”. Take `COc1cc(F)c2nc(C[C@@H]3C[C@H]4CC[C@@H](C3)N4CC(=O)NC(C)(C)C)[nH]c2c1` [Example 154]: the IC50 in data set [2] amounted to 78 nM. Regarding `COc1ccc2[nH]c(C[C@@H]3C[C@H]4CC[C@@H](C3)N4CC(=O)NC(C)(C)C)nc2c1OC` [Example 155], in data set [1], the “Ames test S9 (−)” value is recorded as “Negative” and the “Ames test S9 (+)” value is reported as “Negative”. `COc1ccc(OC)c2[nH]c(C[C@@H]3C[C@H]4CC[C@@H](C3)N4CC(=O)NC(C)(C)C)nc12` [Example 172]: in data set [1], the “Ames test S9 (−)” value is listed as “Negative” and the “Ames test S9 (+)” value is “Negative”. With `Cc1cc(C(=O)NC[C@@H]2C[C@H]3CC[C@@H](C2)N3CC(=O)NC(C)(C)C)n(C)n1` [Example 174], in data set [1], the “Ames test S9 (−)” value was “Negative” and the “Ames test S9 (+)” value was “Negative”.
